The OPERA property sets (Mansouri et al. 2018)
Where a SMILES comes first, the peptide text is derived from it.

Structure (SMILES)	logP
Cc1cc2c(o1)c(C)c(C)c1ccc(=O)oc12	3.26
C=C(Br)CON=C(C)c1cccc(Oc2nc(OC)cc(OC)n2)c1C(=O)OC	3.73
COCc1ccc(CC#N)cc1	1.23
CC(=O)OC1CCCC2(C)CCC(C(C)(C)OC(C)=O)CC12 (stereo not drawn)	5.06
COC(=O)C(C)=CC1C(C(=O)OCc2cccc(C(=O)c3ccccc3)c2)C1(C)C (stereo not drawn)	5.45
COc1c2oc(=O)ccc2cc2ccsc12	2.66
CC1(C)CC(=O)C=C(N2CCCCC2)C1	2.83
Nc1cccc(Cn2cnc3ccccc32)c1	1.92
CC(NC(=O)C(C)NC(=O)C(N)C(C)C)C(=O)NC(Cc1ccccc1)C(=O)O (stereo not drawn) (H-VAAF-OH; configuration not given here)	-1.91
CC(C)CC(NC(=O)C(N)C(C)C)C(=O)O (stereo not drawn) (H-Val-Leu-OH; configuration not given here)	-2.07
c1ccc(Nc2nnc(Cn3ccc4ccccc43)s2)cc1	3.47
Nc1nc(N)c2c(F)cccc2n1	1.19
Cc1nc([N+](=O)[O-])c(Cl)[nH]1	1.06
COc1c2oc(=O)c(C)cc2cc2c(C)c(C)oc12	3.28
CC(SSc1ncc[nH]1)c1ccccc1 (stereo not drawn)	3.39
Cc1cc(C)c2c(c1)COP(=O)(OCC1C=CC(n3cc(C)c(=O)[nH]c3=O)O1)O2 (stereo not drawn)	1.18
CC(O)CN(C)C (stereo not drawn)	0.2

Structure (SMILES)	logP
COc1cc(OC)c(Cl)cc1N	1.45
CS(=O)(=O)c1cccc2nc(N)nc(N)c12	0.63
NC1=NC(C2OCCc3ccccc32)CS1 (stereo not drawn)	1.79
COc1ccc(C2Cc3cc(SC)ccc3N(CCN(C)C)C(=O)C2OC(C)=O)cc1 (stereo not drawn)	4
C[N+](C)([O-])CCC(c1ccccc1)c1ccccc1	1.1
C[N+](C)([O-])C(c1ccccc1)c1ccccc1	0.82
COc1ccc(Nc2nc(O)nc(NC(C)C)n2)cc1OC	3.49
COc1ccc(-c2ccoc2)cc1CNC1CCCNC1c1ccccc1 (stereo not drawn)	4.2
C[N+](C)([O-])CC(c1ccccc1)c1ccccc1	1.01
Cc1nc2c3c(c(C(=O)N(C)C)cn2c1C(=O)N(C)C)CCC(c1ccccc1)O3 (stereo not drawn)	1.89
COC1=CC(=O)c2c(c(COC(N)=O)c3n2CCC3OC(C)=O)C1=O (stereo not drawn)	0.72
COc1cc(OC)c(C=[N+]([O-])C(C)(C)C)c(OC)c1	1.2
ClCC1(C(Cl)Cl)C2CC(Cl)C1(C(Cl)Cl)CC2(Cl)Cl (stereo not drawn)	5.75
O=c1cc(-c2cccc(Cl)c2)oc2ccccc12	3.91
NC1=NCC(COc2ccccc2Cc2ccccc2)O1 (stereo not drawn)	3.05
Cc1ccccc1Nc1ccncc1S(=O)(=O)NC(=O)NC(C)C	3.91

The remaining lines, values ahead:

logP	Structure (SMILES)
1.19	CCCCNC(C)CO (stereo not drawn)
4.31	CCOc1cc2ncnc(Nc3cccc(Cl)c3)c2cc1OCC
1.12	C#CCN(N=O)C(=O)NCCCC(NC(C)=O)C(=O)NCc1ccccc1 (stereo not drawn)
4.06	CC(C)(C)c1ccc(C(O)CCCN2CCC(C(O)c3ccccc3)CC2)cc1 (stereo not drawn)
1.38	CC(C)Nc1[nH]cnc2ncnc1-2
4.3	CC1CC2C3CCC4=CC(=O)C=CC4(C)C3(F)C(O)CC2(C)C1(O)C(=O)COC(=O)CC(C)(C)C (stereo not drawn)
0.9	COC(=O)C(C)NP(=O)(OCC1C=CC(n2cc(C)c(=O)[nH]c2=O)O1)Oc1ccc([N+](=O)[O-])cc1 (stereo not drawn)
5.74	CCCCCCCCCCCCCCNCCO
0.81	CCCOCCCNc1ncnc2c1ncn2C1OC(CO)C(O)C1O (stereo not drawn)
3.59	CCOc1ccccc1NC(=O)OCCN1CCCCC1
1.1	CCCCNc1ncnc2c1ncn2C1OC(CO)C(O)C1O (stereo not drawn)
3.99	OC(CCNC1CCCCC1)COc1cccc2ccccc12 (stereo not drawn)
1.4	CC(Cl)C(=O)Nc1ccc(C2=NNC(=O)CC2C)cc1 (stereo not drawn)
1.27	Cc1nc2ccccc2c(=O)n1CC(=O)N1CCCCC1
1.68	COc1ccc(-c2cn3cc(N)cnc3n2)c(OC)c1
2.27	O=C(O)CCCCON=C(c1ccccc1)c1ccncn1
3	COc1ccc(CCNCC(O)COc2ccc(CCc3nc(Br)c[nH]3)cc2)cc1OC (stereo not drawn)
-2.03	NC(Cc1ccc(O)cc1)C(=O)N1CCCC1C(=O)O (stereo not drawn) (H-Tyr-Pro-OH; configuration not given here)
1.82	CCN(C)CC(=O)Nc1c(C)cccc1C
2.27	Fc1ccccc1CNc1[nH]cnc2ncnc1-2
2.07	CC(C)CCCNc1ncnc2c1ncn2C1OC(CO)C(O)C1O (stereo not drawn)
1.64	CCCc1nc(N(C)C)nc(N2CCOCC2)n1
1.78	COC(=O)C(C)NP(=O)(OCC1C=CC(n2cc(C)c(=O)[nH]c2=O)O1)Oc1cccc(I)c1 (stereo not drawn)
3.5	Cc1nc2c3c(c(C(N)=O)cn2c1C)CCC(c1ccccc1)O3 (stereo not drawn)
1	O=C(NCCNCC(O)COc1ccc(CCOCCOCC2CC2)cc1)N1CCC(O)CC1 (stereo not drawn)
0.48	CC(C)Nc1ncnc2c1ncn2C1OC(CO)C(O)C1O (stereo not drawn)
3.61	COC(=O)C1=C(C)NC(C)=C(C(=O)OCc2cccnc2)C1c1cccc2c1OCO2 (stereo not drawn)
5.04	O=S(=O)(NC(=S)NC1CCCCC1)c1cnccc1NC1CCCCCCC1
5.8	CCOc1ccccc1NC(=O)OC1C(CN(CC)CC)C2CCC1(C)C2(C)C (stereo not drawn)
2.85	CCCSc1cccc2nc(N)nc(N)c12
